Tests used:
Test in all cases: drug activity profiling cytotoxicity
Type in all cases: cell-based
A427 = conditions: Homo sapiens, A-427; A427 cell line, Lung (NSCLC); read-out: Aza-T-dCyd IC50
Outline: (§1)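 Panel of 200 cell lines; Aza-T-dCyd cytotoxicity measured by drug activity profiling.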

Jurkat = conditions: Homo sapiens; Jurkat cell line, ALL; read-out: Aza-T-dCyd IC50
Outline: as §1

JAR = JAR cell line, Placenta; read-out: Aza-T-dCyd IC50
Outline: as §1

TT = conditions: Homo sapiens; TT cell line, Endocrine (Thyroid); read-out: Aza-T-dCyd IC50
Outline: as §1

A172 = conditions: Homo sapiens, A 172; A172 cell line, CNS (Glioma); read-out: Aza-T-dCyd IC50
Outline: as §1

A7 = A7 cell line, Skin (Melanoma); read-out: Aza-T-dCyd IC50
Outline: as §1

MCF7 = conditions: Homo sapiens; MCF7 cell line, Breast; read-out: Aza-T-dCyd IC50
Outline: as §1

NCI-H69 = conditions: Homo sapiens; NCI-H69 cell line, Lung (SCLC); read-out: Aza-T-dCyd IC50
Outline: as §1

DU145 = conditions: Homo sapiens, DU-145; DU145 cell line, Prostate; read-out: Aza-T-dCyd IC50
Outline: as §1

MOLT-4 = conditions: Homo sapiens; MOLT-4 cell line, ALL; read-out: Aza-T-dCyd IC50
Outline: as §1

NCIH441 = conditions: Homo sapiens, NCI-H441; NCIH441 cell line, Lung (NSCLC); read-out: Aza-T-dCyd IC50
Outline: as §1

CAMA-1 = conditions: Homo sapiens; CAMA-1 cell line, Breast; read-out: Aza-T-dCyd IC50
Outline: as §1

BFTC-905 = conditions: Homo sapiens; BFTC-905 cell line, Bladder; read-out: Aza-T-dCyd IC50
Outline: as §1

KATO III = conditions: Homo sapiens; KATO III cell line, Stomach; read-out: Aza-T-dCyd IC50
Outline: as §1

AsPC-1 = conditions: Homo sapiens, ASPC1; AsPC-1 cell line, Pancreas; read-out: Aza-T-dCyd IC50
Outline: as §1

KHOS-240S = KHOS-240S cell line, Bone (Osteosarcoma); read-out: Aza-T-dCyd IC50
Outline: as §1

Hs 821.T = Hs 821.T cell line, Sarcoma; read-out: Aza-T-dCyd IC50
Outline: as §1

DK-MG = DK-MG cell line, CNS (Glioma); read-out: Aza-T-dCyd IC50
Outline: as §1

G-361 = conditions: Homo sapiens; G-361 cell line, Skin (Melanoma); read-out: Aza-T-dCyd IC50
Outline: as §1

SU-DHL-10 = conditions: Homo sapiens, SU-DHL10; SU-DHL-10 cell line, B-cell lymphoma; read-out: Aza-T-dCyd IC50
Outline: as §1

Caki-2 = conditions: Homo sapiens; Caki-2 cell line, Kidney; read-out: Aza-T-dCyd IC50
Outline: as §1

SW480 = conditions: Homo sapiens; SW480 cell line, Colon; read-out: Aza-T-dCyd IC50
Outline: as §1

Daudi = conditions: Homo sapiens; Daudi cell line, Burkitt's lymphoma; read-out: Aza-T-dCyd IC50
Outline: as §1

SCC-9 = conditions: Homo sapiens; SCC-9 cell line, Head and Neck; read-out: Aza-T-dCyd IC50
Outline: as §1

U-118 MG = conditions: Homo sapiens; U-118 MG cell line, CNS (Glioma); read-out: Aza-T-dCyd IC50
Outline: as §1

EM-2 = conditions: Homo sapiens; EM-2 cell line, CML; read-out: Aza-T-dCyd IC50
Outline: as §1

NCI-H508 = conditions: Homo sapiens; NCI-H508 cell line, Colon; read-out: Aza-T-dCyd IC50
Outline: as §1

HCT-15 = conditions: Homo sapiens; HCT-15 cell line, Colon; read-out: Aza-T-dCyd IC50
Outline: as §1

647-V = conditions: Homo sapiens; 647-V cell line, Bladder; read-out: Aza-T-dCyd IC50
Outline: as §1

SK-NEP-1 = conditions: Homo sapiens; SK-NEP-1 cell line, Kidney; read-out: Aza-T-dCyd IC50
Outline: as §1

769-P = conditions: Homo sapiens; 769-P cell line, Kidney; read-out: Aza-T-dCyd IC50
Outline: as §1

Nc1ncn([C@H]2CC(O)[C@@H](CO)S2)c(=O)n1 (stereo partly shown) [Aza-T-dCyd, 4′-thio-5-aza-2′-deoxycytidine]
IC50 (A427): 77.5 nM
IC50 (Jurkat): 69.5 nM
IC50 (JAR): 296 nM
IC50 (TT): > 10000 nM
IC50 (A172): > 10000 nM
IC50 (A7): 1190 nM
IC50 (MCF7): 6470 nM
IC50 (NCI-H69): > 10000 nM
IC50 (DU145): 432 nM
IC50 (MOLT-4): 35 nM
IC50 (NCIH441): 1300 nM
IC50 (CAMA-1): > 10000 nM
IC50 (BFTC-905): 119 nM
IC50 (KATO III): 807 nM
IC50 (AsPC-1): 2120 nM
IC50 (KHOS-240S): 254 nM
IC50 (Hs 821.T): > 10000 nM
IC50 (DK-MG): > 10000 nM
IC50 (G-361): 1080 nM
IC50 (SU-DHL-10): 36.6 nM
IC50 (Caki-2): 363 nM
IC50 (SW480): 1580 nM
IC50 (Daudi): 451 nM
IC50 (SCC-9): 1830 nM
IC50 (U-118 MG): > 10000 nM
IC50 (EM-2): 255 nM
IC50 (NCI-H508): 542 nM
IC50 (HCT-15): 1020 nM
IC50 (647-V): 408 nM
IC50 (SK-NEP-1): > 10000 nM
IC50 (769-P): 65.7 nM

Reference: patent US12708630B2, “Combined therapy of 4′-thio-5-aza-2′-deoxycytidine and Venetoclax” (PINOTBIO, INC., priority 2021, dated 2026)
